Data from patent US7390806B2, “Antibiotics containing borinic acid complexes and methods of use” (Anacor Pharmaceuticals, Inc., priority 2002, dated 2008).

Key:
Conditions in all cases: Table 1
[1] = test system: S. epidermidis ATCC 12228; assay: MIC determination, S. epidermidis ATCC 12228; assay type: cell-based, Staphylococcus epidermidis
[2] = test system: E. faecalis ATCC 29212; assay: MIC determination, E. faecalis ATCC 29212; assay type: cell-based, Enterococcus faecalis
[3] = test system: E. faecium CT-26; assay: MIC determination, E. faecium CT-26; assay type: cell-based, Enterococcus faecium
[4] = test system: M. catarrhalis ATCC 25238; assay: MIC determination, M. catarrhalis ATCC 25238; assay type: cell-based
[5] = test system: S. aureus ATCC 29213; assay: MIC determination, S. aureus ATCC 29213; assay type: cell-based, Staphylococcus aureus
[6] = test system: S. pneumoniae ATCC 6301; assay: MIC determination, S. pneumoniae ATCC 6301; assay type: cell-based, Streptococcus pneumoniae

Compound	MIC S. epidermidis ATCC 12228 [1] [micrograms per ml]	MIC E. faecalis ATCC 29212 [2] [micrograms per ml]	MIC E. faecium CT-26 [3] [micrograms per ml]	MIC M. catarrhalis ATCC 25238 [4] [micrograms per ml]	MIC S. aureus ATCC 29213 [5] [micrograms per ml]	MIC S. pneumoniae ATCC 6301 [6] [micrograms per ml]
Oc1cccc2cccnc12 [Compound 82, 8-hydroxyquinoline]	2	8	2	4	2	2
Oc1cccc2cccnc12 [Compound 83, 8-hydroxyquinoline]	1	4	4	2	2	2
Oc1cccc2cccnc12 [Compound 84, 8-hydroxyquinoline]	1	8	4	4	2	2
Oc1cccc2cccnc12 [Compound 85, 8-hydroxyquinoline]	1	4	4	2	2	2
Oc1cccc2cccnc12 [Compound 86, 8-hydroxyquinoline]	1	8	4	2	2	2
Oc1cccc2cccnc12 [Compound 87, 8-hydroxyquinoline]	1	8	4	1	2	2
Oc1cccc2cccnc12 [Compound 88, 8-hydroxyquinoline]	2	8	2	2	2	2
Oc1cccc2cccnc12 [Compound 89, 8-hydroxyquinoline]	1	8	2	2	2	1
Oc1cccc2cccnc12 [Compound 90, 8-hydroxyquinoline]	2	8	2	2	2	1
Oc1cccc2cccnc12 [Compound 91, 8-hydroxyquinoline]	1	8	2	1	2	2
Oc1cccc2cccnc12 [Compound 92, 8-hydroxyquinoline]	1	8	4	1	2	2
Oc1cccc2cccnc12 [Compound 93, 8-hydroxyquinoline]	1	8	4	1	2	1
Oc1cccc2cccnc12 [Compound 94, 8-hydroxyquinoline]	1	8	4	2	2	1
Oc1cccc2cccnc12 [Compound 95, 8-hydroxyquinoline]	1	8	2	1	2	2
Oc1cccc2cccnc12 [Compound 96, 8-hydroxyquinoline]	1	8	2	1	2	2
Oc1cccc2cccnc12 [Compound 97, 8-hydroxyquinoline]	1	8	2	1	2	1
Oc1cccc2cccnc12 [Compound 98, 8-hydroxyquinoline]	1	8	4	1	2	1
Oc1cccc2cccnc12 [Compound 99, 8-hydroxyquinoline]	1	8	2	1	2	2
Oc1cccc2cccnc12 [Compound 100, 8-hydroxyquinoline]	1	4	2	1	2	2
Bis(ethynyl)borinic acid 8-Hydroxyquinoline [Compound 44]	1	16	2	0.25	1	1
